One assay concerns the target T1, His6-TEV-PPARγ-(234-505) (Homo sapiens, UniProt P37231).
T1 construct: The His6-TEV-PPARγ-(234-505) protein for assay was expressed and purified; TEV cleavage site (N); made in house
T1 sequence (P37231 234-505): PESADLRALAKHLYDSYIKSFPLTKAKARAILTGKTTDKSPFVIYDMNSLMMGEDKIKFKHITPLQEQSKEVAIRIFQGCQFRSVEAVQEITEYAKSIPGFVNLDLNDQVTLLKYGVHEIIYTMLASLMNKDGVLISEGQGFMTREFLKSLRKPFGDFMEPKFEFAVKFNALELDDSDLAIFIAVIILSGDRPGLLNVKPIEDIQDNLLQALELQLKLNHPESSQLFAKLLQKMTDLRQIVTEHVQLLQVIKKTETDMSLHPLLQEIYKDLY
Kind of assay: TR-FRET Assay to Measure Co-R Peptide Recruitment to PPARγ. Format: biochemical. Conditions: Co-R peptide (SMRT-ID2) recruitment, top final concentration 20 μM, read-out: TR-FRET i-Ag, AC50. The gist of the method:
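Corepressor recruitment is measured by adding terbium-labeled anti-His antibody and FITC SMRT-ID2 peptide, at 5 and 200 nM final, after a 20-minute room-temperature protein–compound incubation. After one further hour, signal is converted to percent response between DMSO and 500 nM T0070907 wells.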
On the technique in general: Time-resolved FRET reads energy transfer from a long-lived donor to a nearby acceptor.

The subject of the next assay is UM-UC-9 engineered cells. Kind of assay: Cell proliferation / short-term viability assay, CellTiter-Glo 144 h. The format is cell-based, human. Conditions: read-out: CTGlo 144 h UMUC9.5, G150. An outline of the steps: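 Viability read by CellTiter-Glo 2.0 luminescence at day 7 versus DMSO-vehicle wells and a T0 plate measured on day 0. Cells: UM-UC-9 engineered assay-ready stocks, 500 cells/well in high-glucose DMEM with 10% FBS, 37° C, 5% CO2.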
On the technique in general: In ATP-based viability assays light output follows the ATP content of the culture.

Molecules are shown by their SMILES. pIC50: −log10 of the molar value. Read-outs that look alike come from different tables or passages of the source. Where only a bound is given, the exact number is not on record here.

As to `CCOC1(C(F)(F)F)CCC(NC(=O)[C@@H]2CCN(C(=O)c3cc(-c4cc(C)ncn4)[nH]n3)C3(CC3)C2)CC1` (mixture of isomers) [Example 308-B, (R)—N-(4-ethoxy-4-(trifluoromethyl)cyclohexyl)-4-(5-(6-methylpyrimidin-4-yl)-1H-pyrazole-3-carbonyl)-4-azaspiro[2.5]octane-7-carboxamide], on His6-TEV-PPARγ-(234-505), the AC50 turned out to be 548 nM. Besides, the pIC50 in the assay on UM-UC-9 engineered cells (Homo sapiens, UM-UC-9, 144 h) is 6.00.

On to `COc1cc(-c2cc(C(=O)N3CCC(C(=O)NC4[C@@H]5CCC[C@H]4CC5)CC3)n[nH]2)c(F)cn1` (mixture of isomers) [Example 165, N-(bicyclo[3.2.1]octan-8-yl)-1-(5-(5-fluoro-2-methoxypyridin-4-yl)-1H-pyrazole-3-carbonyl)piperidine-4-carboxamide], for which, on His6-TEV-PPARγ-(234-505), the AC50 is 179 nM. The pIC50 in the assay with UM-UC-9 engineered cells (Homo sapiens, UM-UC-9, 144 h) was 6.36.

Regarding `COc1cc(-c2cc(C(=O)N3CCC(C(=O)NC4CCC(C)(C)N(C)C4)CC34CC4)n[nH]2)c(F)cn1` (mixture of isomers) [Example 424, (S)-4-(5-(5-fluoro-2-methoxypyridin-4-yl)-1H-pyrazole-3-carbonyl)-N—((R)-1,6,6-trimethylpiperidin-3-yl)-4-azaspiro[2.5]octane-7-carboxamide and (S)-4-(5-(5-fluoro-2-methoxypyridin-4-yl)-1H-pyrazole-3-carbonyl)-N—((S)-1,6,6-trimethylpiperidin-3-yl)-4-azaspiro[2.5]octane-7-carboxamide], the AC50 at His6-TEV-PPARγ-(234-505) stood at 942 nM. Further, the pIC50 in the assay with UM-UC-9 engineered cells was 5.71.

As to `COc1cc(-c2cc(C(=O)N3CCC(C(=O)NC4CCCc5c4ccc(=O)n5C)CC3)n[nH]2)c(Cl)cn1` (racemic) [Example 234, 1-(5-(5-chloro-2-methoxypyridin-4-yl)-1H-pyrazole-3-carbonyl)-N-(1-methyl-2-oxo-1,2,5,6,7,8-hexahydroquinolin-5-yl)piperidine-4-carboxamide], the AC50 on His6-TEV-PPARγ-(234-505) was 927 nM. Besides, the pIC50 with UM-UC-9 engineered cells (Homo sapiens, UM-UC-9, 144 h) was less than 5.00.

Regarding `COc1cc(-c2cc(C(=O)N3CCC(C(=O)NCc4ccc5[nH]ccc5c4)CC3)n[nH]2)c(Cl)cn1` [Example 122, N-((1H-indol-5-yl)methyl)-1-(5-(5-chloro-2-methoxypyridin-4-yl)-1H-pyrazole-3-carbonyl)piperidine-4-carboxamide], the AC50 at His6-TEV-PPARγ-(234-505) amounted to 11 nM. Also, the pIC50 in the assay with UM-UC-9 engineered cells (Homo sapiens, UM-UC-9, 144 h) was 7.18.

Take `COc1cc(-c2cc(C(=O)N3CC[C@H](C(=O)NC4CCC(O)(C(F)(F)F)C(O)C4)CC34CC4)n[nH]2)c(F)cn1` (single isomer, unassigned) [Example 474-C]: the AC50 on His6-TEV-PPARγ-(234-505) was found to be 5.4 nM. In addition, the pIC50 in the assay with UM-UC-9 engineered cells (Homo sapiens, UM-UC-9, 144 h) was 7.63.

As for `COc1cc(-c2cc(C(=O)N3CC[C@H](C(=O)Nc4cnn5ccc(Cl)nc45)CC34CC4)n[nH]2)c(F)cn1` [Example 430, (S)—N-(5-chloropyrazolo[1,5-a]pyrimidin-3-yl)-4-(5-(5-fluoro-2-methoxypyridin-4-yl)-1H-pyrazole-3-carbonyl)-4-azaspiro[2.5]octane-7-carboxamide], on His6-TEV-PPARγ-(234-505), the AC50 is 5 nM. Also, the pIC50 with UM-UC-9 engineered cells (Homo sapiens, UM-UC-9, 144 h) was 8.08.

With `COc1cc(-c2cc(C(=O)N3CCC(C(=O)NC4CCC(C)CC4)CC3)n[nH]2)c(F)cn1` (single isomer, unassigned) [Example 114-A], the AC50 on His6-TEV-PPARγ-(234-505) (listed as 114a) came out at 3470 nM. In the assay on UM-UC-9 engineered cells (listed as 114a), the pIC50 is 5.35.

In the case of `COc1cc(-c2cc(C(=O)N3CC[C@H](C(=O)NCC45CC(O)(C4)C5)CC34CC4)n[nH]2)c(F)cn1` [Example 336, (S)-4-(5-(5-fluoro-2-methoxypyridin-4-yl)-1H-pyrazole-3-carbonyl)-N-((3-hydroxybicyclo[1.1.1]pentan-1-yl)methyl)-4-azaspiro[2.5]octane-7-carboxamide], the AC50 on His6-TEV-PPARγ-(234-505) was found to be 109 nM. The pIC50 with UM-UC-9 engineered cells (Homo sapiens, UM-UC-9, 144 h) is 5.98.

With `COc1cc(-c2cc(C(=O)N3CC[C@H](C(=O)NCC4CCNCC4(F)F)CC34CC4)n[nH]2)c(F)cn1` (single isomer, unassigned) [Example 511-B], on His6-TEV-PPARγ-(234-505), the AC50 turned out to be 18.5 nM. The pIC50 in the assay with UM-UC-9 engineered cells is 7.11.

For the origin of these results see patent publication US12606541B2, “PPARg modulators and methods of use” (Eisai R&D Management Co., Ltd., priority 2020, dated 2026).
